Columns and labels:
[1] = target: PCP recognition sites; experiment: [3H]TCP Radioreceptor Assay (internal screen); assay type: binding, rat (male Sprague-Dawley; details: rat whole brain membranes, room temperature, 25 min; for Ki: ~1 nM [3H]TCP; for Percent inhibition, [3H]TCP (internal screen): @ 10 μM
Method: [^3 H]TCP Radioreceptor Assay (internal screen)
[^3 H]TCP binding to PCP recognition sites was performed as described by Vignon et al. Brain Research 1983, 280, 194°197. Male Sprague-Dawley rats were sacrificed by decapitation, and whole brains were homogenized in 10 volumes (wt/vol) of cold Tris-HCl buffer (50 mM, pH 7.7) using a Brinkmann Polytron (setting 6, 30 sec). The homogenate was centrifuged at 40,000×g for 10 min at 4° C. The supernatant was decanted, and the homogenization and centrifugation steps were repeated twice as described above. Following this, the pellet was resuspended in Tris-HCl (5 mM, pH 7.7) at a tissue concentration of 0.5°0.75 g/ml, and one ml aliquots were frozen at -70° C. until use. The binding characteristics for PCP recognition sites were not altered by the freezing of membrane suspensions.
On the day of the assay, membrane aliquots were thawed, resuspended in fresh 5 mM Tris-HCl buffer at a tissue concentration of 1 mg/ml, and stored on ice until use. Each assay tube contained 100 μl of [^3 H]TCP at a final concentration of approximately 1 nM, 100 μl of various concentrations of the compounds of interest, 500 μl of the tissue suspension and 300 of buffer to a final assay volume of 1 ml and a final protein concentration of 0.5 mg/tube. Non-specific binding was defined by addition of a final concentration of 100 μM PCP to blank tubes. All tubes were incubated at room temperature for 25 min before termination of the reaction by rapid filtration over Whatman GF/B glass fiber filters that had been presoaked in a solution of 0.5% polyethylenimine for at least 1 hr prior to use. Filters were washed with three 4 ml volumes of cold Tris buffer. Following addition of scintillation cocktail, the amount of bound radioactivity was determined by liquid scintillation spectrometry using a Beckman LS 5000TA liquid scintillation counter with an efficiency for tritium of approximately 55% . Inhibition constants (Ki values) were calculated using the EBDA/LIGAND program (McPherson, J. Pharmacol. Meth. 1985, 14, 213-228), purchased from Elsevier/Biosoft, Inc. Results are reported as Ki values or as a percent (%) inhibition of binding at 10

[2] = test system: NMDA-induced neurotoxicity in cultured cortical neurons; experiment: Antagonism of NMDA-induced neurotoxicity in cultured neurons (LDH release); assay type: cell-based, mouse (Swiss-Webster); details: 500 μM NMDA, 30 minutes, LDH activity at 24 hours, mouse cortical neurons
Method: Antagonism of NMDA-induced Neurotoxicityin Cultured Neurons
Preparation of Cultured Cortical Neurons
Pregnant, Swiss-Webster mice were obtained from Taconic Farms (Germantown, New York) and sacrificed 16 days post conception. Fetuses were removed and placed in a sterile dish containing Hank's balanced salt solution (HBSS), pH 7.4. Brain cortices were dissected, meninges were removed, the tissue was minced and placed into a solution of HBSS containing 0.25% (w/v) trypsin at 37° C. for 15 minutes. Tissue was then triturated with a sterile pasteur pipet, diluted with minimal essential media (Gibco 330-1430), pH 7.4, supplemented with 10% horse serum, 10% fetal calf serum, 2 mM 1-glutamine, 21 mM d-glucose, 2.2 g/L sodium bicarbonate, 1000 u/ml penicillin, and 1,000 μg/ml streptomycin. Cells were plated onto Falcon primaria 96 well plates at a final density of 50,000 cells/well and incubated at 37° C. in the presence of 5% (v/v) carbon dioxide. After 5 days, plating media was replaced with maintenance media containing minimal essential media (Gibco 330- 1430), pH 7.4, supplemented with 10% horse serum, 10% 1-glutamine, 21 mM d-glucose, 2.2 g/l sodium bicarbonate,1,000 U/ml penicillin, 1,000 μg/ml streptomycin, and 10 μM cytosine arabinoside. On days 7 and 10, media was replaced with maintenance media as above lacking the cytosine arabinoside. Experiments were conducted on day 13.
Neuroprotection Assessment
Day 13 cultured cortical neurons were washed twice with minimal essential media, pH 7.4 and then exposed for 30 minutes to 500 μM N-methyl-D-aspartic acid (NMDA) with or without varying concentrations of test agents. Dizocilpine (MK-801) at a final concentration of 10 μM MK-801 was routinely included as a positive control. MK-801 and test agents were prepared in minimal essential media supplemented with 21 mM d-glucose and 2.2 g/L sodium bicarbonate (MEM). After 30 minutes, media was replaced with MEM alone. Exposure of neurons to test agents was limited to the NMDA treatment period. Twenty-four hours after removal of NMDA, an aliquot of media from each well was removed for assessment of cell injury by determining lactate dehydrogenase (LDH) activity by. the method of Wroblewski and LaDue Proc. Soc. Exp. Biol. Med. 1955, 90, 210-213. The results are expressed as an IC50 (in nM) value (concentration causing 50% inhibition) for the antagonism of NMDA--inducedneurotoxicity.

Compound `CCOC1(OCC)C2c3cc(OC)ccc3C([n+]3ccccc32)C1(C)C` (single isomer, unassigned) [20(a), 9-methoxy-12,12-diethoxy-13,13-dimethyl-6,11-ethano-6,11-dihydrobenzo[b]quinolizinium hexafluorophosphate] has a Ki [1] of 3.52 nM and an IC50 [2] of 157 nM.

In the case of `CCOC1(OCC)C2c3ccccc3C([n+]3ccccc32)C1(C)C` (single isomer, unassigned) [Example 13(c), 12,12-diethoxy-13,13-dimethyl-6,11-ethano-6,11-dihydrobenzo[b]quinolizinium chloride-1/2-3/4 hydrate], the Ki ([1]; hydrate) is reported as 11 nM and the IC50 ([2]; Cortical neurone) is reported as 50 nM.

Compound `CCOC1(OCC)C2c3ccccc3C(C1C)[n+]1ccccc12` (single isomer, unassigned) [Example 37, 6,11-ethano-12,12-diethoxy-13-methyl-6,11-dihydrobenzo[b]quinolizinium] has an IC50 ([2]; Cortical neurone) of 810 nM.

With `CCOC1(OCC)C2c3ccccc3C(C1Cl)[n+]1ccccc12` (single isomer, unassigned) [Example 41, 6,11-ethano-12,12-diethoxy-13-chloro-6,11-dihydrobenzo[b]quinolizinium bromide] the Ki [1] was 67 nM and the IC50 ([2]; Cortical neurone) was 445 nM.

`CCOC1(OCC)C2c3ccccc3C([n+]3ccccc32)C1(C)C.[O-][Cl+3]([O-])([O-])[O-]` (centres unmarked) [1(a), 12,12-diethoxy-13,13-dimethyl-6,11-ethano-6,11-dihydrobenzo[b]quinolizinium perchlorate] showed a Ki [1] of 8.4 nM and an IC50 ([2]; Cortical neurone) of 17 nM.

`CCOC1(OCC)C2c3c(OC)cccc3C([n+]3ccccc32)C1(C)C` (centres unmarked) [19(d), 10-methoxy-12,12-diethoxy-13,13-dimethyl-6,11-ethano-6,11-dihydrobenzo[b]quinolizinium chloride·3/2 hydrate] was tested, and the Ki ([1]; hydrate) was 10.4 nM and the IC50 ([2]; Cortical neurone) was 21.8 nM.

`CCOC1(OCC)CC2c3ccccc3C1c1cccc[n+]12` (centres unmarked) [28(b), 6,11-ethano-12,12-diethoxy-6,11-dihydrobenzo[b]quinolizinium chloride] was tested, and the Ki [1] was 4270 nM and the IC50 ([2]; Cortical neurone) was 95500 nM.

For `CCOC1(OCC)C2c3c(Br)cccc3C([n+]3ccccc32)C1(C)C` (centres unmarked) [Example 30, 6,11-ethano-12,12-diethoxy-13,13-dimethyl-10-bromo-6,11-dihydrobenzo[b]quinolizinium chloride], the Ki [1] was 107 nM.

In the case of `CCOC1(OCC)C2c3c(ccc4c3OCO4)C([n+]3ccccc32)C1(C)C.[O-][Cl+3]([O-])([O-])[O-]` (centres unmarked) [Example 31, 6,11-ethano-12,12-diethoxy-13,13-dimethyl-9,10-methylenedioxy-6,11-dihydrobenzo[b]quinolizinium perchlorate], the Ki [1] is reported as 7.42 nM.

`CCOC1(OCC)C2(C)c3c(OC)cccc3C([n+]3ccccc32)C1(C)C.[O-][Cl+3]([O-])([O-])[O-]` (centres unmarked) [Example 32, 6,11-ethano-12,12-diethoxy-13,13-dimethyl-10-methoxy-11-methyl-6,11-dihydrobenzo[b]quinolizinium perchlorate] gave a Ki [1] of 63.7 nM.

In the case of `CCOC1(OCC)C2c3ccccc3C([n+]3cccc(OC)c32)C1(C)C.[O-][Cl+3]([O-])([O-])[O-]` (centres unmarked) [Example 33, 6,11-ethano-12,12-diethoxy-13,13-dimethyl-1-methoxy-6,11-dihydrobenzo-[b]quinolizinium perchlorate], the Ki [1] is reported as 25.8 nM.

With `CCOC1(OCC)C2c3ccccc3C(C1Br)[n+]1ccccc12.[O-][Cl+3]([O-])([O-])[O-]` (centres unmarked) [Example 36, 6,11-ethano-12,12-diethoxy-13-bromo-6,11-dihydrobenzo[b]quinolizinium perchlorate] the Ki [1] was 20.4 nM.

`COC1(O[Si](C)(C)C)C2c3ccccc3C([n+]3ccccc32)C1(C)C.[O-][Cl+3]([O-])([O-])[O-]` (centres unmarked) [Example 40, 6,11-ethano-12-methoxy-12-trimethylsilyloxy-13,13-dimethyl-6,11-dihydrobenzo[b]quinolizinium perchlorate] showed a Ki [1] of 1600 nM.

With `CCN(CC)C1C2c3ccccc3C([n+]3ccccc32)C1(C)C` (centres unmarked) [Example 44, 6,11-ethano-12-(diethyl) amino-13,13-dimethyl-6,11-dihydrobenzo[b]quinolizinium diperchlorate] the Ki [1] was 501 nM.

With `C[C@@H]1C[C@@H](C)OC2(O1)C1c3ccccc3C([n+]3ccccc31)C2(C)C` (stereo partly drawn) [Example 45, 6,11-ethano-12,12-(2R,4R-pentanediolketal)-13,13-dimethyl-6,11-dihydrobenzo[b]quinolizinium perchlorate] the Ki [1] was 517 nM.

`CCOC1(OCC)C2c3c(C)cccc3C([n+]3ccccc32)C1(C)C.[O-][Cl+3]([O-])([O-])[O-]` (centres unmarked) [Example 47, 6,11-ethano-12,12-diethoxy-13,13-dimethyl-10-methyl-6,11-dihydrobenzo[b]quinolizinium perchlorate] gave a Ki [1] of 45.5 nM.

Work on `CCOC1C2c3ccccc3C([n+]3ccccc32)C1(C)C.[O-][Cl+3]([O-])([O-])[O-]` (centres unmarked) [Example 48, 6,11-ethano-12-ethoxy-13,13-dimethyl-6,11-dihydrobenzo[b]quinolizinium perchlorate] yielded a Ki [1] of 2150 nM.

`CCOC1(OCC)C2c3c(OC)ccc(OC)c3C([n+]3ccccc32)C1(C)C.[O-][Cl+3]([O-])([O-])[O-]` (centres unmarked) [Example 52, 6,11-ethano-12,12-diethoxy-13,13-dimethyl-7,10-dimethoxy-6,11-dihydrobenzo[b]quinolizinium perchlorate] was tested, and the “Percent inhibition, [3H]TCP (internal screen)” value (“Percent inhibition, [3H]TCP” below) [1] was 33%.

Compound `CCOC1(OCC)C2c3cccc(C)c3C([n+]3ccccc32)C1(C)C` (centres unmarked) [Example 55, 6,11-ethano-12,12-diethoxy-13,13-dimethyl-7-methyl-6,11-dihydrobenzo[b]quinolizinium chloride] has a Ki [1] of 455 nM.

With `CC(=O)Oc1ccc(C(C)(C)C)c2c1C1[n+]3ccccc3C2C2(O[C@H](C)[C@@H](C)O2)C1(C)C` (stereo partly drawn) [Example 56, 6,11-ethano-12,12-(2R,3R-butanediolketal)-13,13-dimethyl-7-acetoxy-10-t-butyl-6,11-dihydrobenzo[b]quinolizinium perchlorate] the “Percent inhibition, [3H]TCP” value [1] was 24%.

With `CC(=O)Oc1ccc(C(C)(C)C)c2c1C1[n+]3ccccc3C2C2(O[C@H](C)C[C@@H](C)O2)C1(C)C` (stereo partly drawn) [Example 57, 6,11-ethano-12,12-(2R,4R-pentanediolketal)-13,13-dimethyl-7-acetoxy-10-t-butyl-6,11-dihydrobenzo[b]quinolizinium perchlorate] the “Percent inhibition, [3H]TCP” value [1] was 18%.

In the case of `CCOC1(OCC)C2c3c(C(C)(C)C)ccc(OC(C)=O)c3C([n+]3ccccc32)C1(C)C.[O-][Cl+3]([O-])([O-])[O-]` (centres unmarked) [Example 58, 6,11-ethano-12,12-diethoxy-13,13-dimethyl-7-acetoxy-10-t-butyl-6,11-dihydrobenzo[b]quinolizinium perchlorate], the “Percent inhibition, [3H]TCP” value [1] is reported as 12%.

`CCN(CC)C1C2c3ccccc3C(C1C)[n+]1ccccc12` (centres unmarked) [Example 62, 6,11-ethano-12-(diethyl) amino-13-methyl-6,11-dihydrobenzo[b]quinoliziniumperchlorate] showed a Ki [1] of 12200 nM.

From patent US5380729A, “12-hetero substituted 6,11-ethano-6,11-dihydrobenzo (b) quinolizinium salts and compositions and method of use thereof” (Sterling Winthrop Inc., priority 1993, dated 1995)
